Where “and” joins values, the source holds several entries; their conditions need not be identical. Equal values may be shown once. Marks after values point to notes of the source that are not given here.
Experiments:
[1] = test system: 9L brain gliosarcoma cells; assay: Tumor cell growth in vitro (sulforhodamine B), 9L; format: cell-based
Description: (§1) Growth of cell lines. Comparisons of different inhibitors with regard to suppression of human cancer cell growth were made by the University of Michigan Cancer Center in vitro Drug Evaluation Core Laboratory. MCF-7 breast carcinoma cells, HT-29 colon adenocarcinoma cells, H-460 lung large cell carcinoma cells, and 9L brain gliosarcoma cells were grown in RPMI 1640 medium with 5% fetal bovine serum, 2 mM glutamine, 50 units/ml of penicillin, […] of streptomycin, and 0.1 mg/ml of neomycin. UMSCC-10A head and neck squamous carcinoma cells were grown in minimal essential medium with Earle salts and the same supplements. Medium components were from Sigma Chemical Co. Cells were plated in 96-well microtiter plates (1000 cells/well for H-460 and 9L cells, and 2000 cells/well for the other lines), and the test compounds were added 1 day later. The stock inhibitor solutions, 2 mM in 2 mM BSA, were diluted with different amounts of additional 2 mM BSA, then each solution was diluted 500-fold with growth medium to obtain the final concentrations indicated in the Figures and Tables.
(§2) Five days after plating the H-460 and 9L cells, or 6 days for the other lines, cell growth was evaluated by staining the adhering cells with sulforhodamine B and measuring the absorbance at 520 nm (Skehan, P. et al., “New Colorimetric Cytotoxicity Assay for Anticancer-Drug Screening,” J. Natl. Cancer Inst., 82:1107-1112 (1990)). The absorbance of the treated cultures is reported as percent of that of control cultures, to provide an estimate of the fraction of the cells that survived, or of inhibition of growth rate.

[2] = test system: GlcCer synthase of MDCK cell homogenates; assay: Inhibition of ceramide glucosyltransferase (GlcCer synthase) of MDCK cell homogenates; format: biochemical, canine; conditions: triplicate ± SD, samples partly isomer mixtures
Description: Assay of sphingolipid enzymes. The inhibitors were evaluated for their effectiveness against the GlcCer synthase of MDCK cell homogenates by incubation in a thermostatted ultrasonic bath (Radin N. S. et al., “Ultrasonic Baths as Substitutes for Shaking Incubator Baths,” Enzyme, 45:67-70 (1991)) with octanoyl sphingosine and uridinediphospho[^3H]glucose (Shukla, G. S. et al., “Glucosylceramide Synthase of Mouse Kidney: Further Characterization and Improved Assay Method,” Arch. Biochem. Biophys., 283:372-378 (1990)). The lipoidal substrate (85 μg) was added in liposomes made from 0.57 mg dioleoylphosphatidylcholine and 0.1 mg of Na sulfatide. Confluent cells were washed, then homogenized with a micro-tip sonicator at 0° C. for 3×30 sec; ˜0.2 mg of protein was used in each assay tube. In the case of the aromatic inhibitors, the test compound was simply evaporated to dryness from solution in the incubation tube. […] The aliphatic inhibitors, which appeared to be less soluble in water, were added as part of the substrate liposomes.

[3] = test system: UMSCC-10A head and neck squamous carcinoma cells; assay: Tumor cell growth in vitro (sulforhodamine B), UMSCC-10A; format: cell-based, human; conditions: Homo sapiens, rounded off to one digit, read-out: Inhibition of tumor cell growth in vitro, IC50
Description: as §1, §2

[4] = test system: H-460 lung large cell carcinoma cells; assay: Tumor cell growth in vitro (sulforhodamine B), H-460; format: cell-based, human; conditions: Homo sapiens, NCI-H460, rounded off to one digit, read-out: Inhibition of tumor cell growth in vitro, IC50
Description: as §1, §2

[5] = test system: MCF-7 breast carcinoma cells; assay: Tumor cell growth in vitro (sulforhodamine B), MCF-7; format: cell-based, human; conditions: Homo sapiens, MCF7, rounded off to one digit, read-out: Inhibition of tumor cell growth in vitro, IC50
Description: as §1, §2

[6] = test system: HT-29 colon adenocarcinoma cells; assay: Tumor cell growth in vitro (sulforhodamine B), HT-29; format: cell-based, human; conditions: Homo sapiens, rounded off to one digit, read-out: Inhibition of tumor cell growth in vitro, IC50
Description: as §1, §2

GlcCer synthase = target: T1, GlcCer synthase (Canis lupus familiaris, UniProt A0A8I3MXG6); assay: Glycosylceramide synthase activity, MDCK cell homogenate (Specific Example 2); format: biochemical, canine
T1 sequence (A0A8I3MXG6 1-394): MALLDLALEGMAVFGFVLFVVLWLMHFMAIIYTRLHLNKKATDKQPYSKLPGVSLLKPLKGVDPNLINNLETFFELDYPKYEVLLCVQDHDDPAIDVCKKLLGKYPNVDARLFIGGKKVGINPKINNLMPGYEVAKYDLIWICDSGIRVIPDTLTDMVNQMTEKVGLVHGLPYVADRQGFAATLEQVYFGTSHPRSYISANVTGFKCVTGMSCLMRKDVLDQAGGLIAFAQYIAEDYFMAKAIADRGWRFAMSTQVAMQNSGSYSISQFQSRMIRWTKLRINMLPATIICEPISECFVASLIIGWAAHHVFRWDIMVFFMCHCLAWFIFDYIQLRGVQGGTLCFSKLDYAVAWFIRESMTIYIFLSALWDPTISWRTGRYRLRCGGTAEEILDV
Description: Glycosylceramide synthase activity. The enzyme activity was measured by the method previously described in Skukla, G. et al., Biochim. Biophys. Acta, 1083:101-108 (1991). MDCK cell homogenate (120 μg of protein) was incubated with uridinediphosphate [^3H]glucose (100,000 cpm) and liposomes consisting of 85 μg octanoylsphingosine, 570 μg dioleoyphosphatidylcholine and 100 μg sodium sulfatide in 200 μl of reaction mixture and kept for 1 h at 37° C. P4 and P4 derivatives dissolved in dimethyl sulfoxide were dispersed into the reaction mixture after adding liposomes. The final concentration of dimethyl sulfoxide was kept 1% under which the enzyme activity was not at all inhibited.

MDCK cells [7] = assay: Cell growth of treated MDCK cells, total protein (Specific Example 2); format: cell-based, canine
Description: (§3) Cell culture and lipid extraction. One half million of MDCK cells were seeded into 10 cm style dish containing 8 ml serum free DMEM supplemented medium. Shayman, J. A. et al., J. Biol. Chem., 265:12135-12138 (1990). After 24 h the medium was replaced with 8 ml of the medium containing 0, 11.8, 118 or 1180 nM D-t-P4, D-t-3′,4′-ethylenedioxy-P4 or D-4′-hydroxy)-P4. The GlcCer synthase inhibitors were added into the medium as a one to one complex with delipidated BSA. Abe, A. et al., J. Lipid. Res., 36:611-621 (1995); Abe, A. et al., Biochim. Biophys. Acta, 1299:331-341 (1996). The cells were incubated for 24 h or 48 h with the inhibitors. After the incubation, the cells were washed twice with 8 ml of cold PBS and fixed with 2 ml of cold methanol. The fixed cells were scraped and transferred to a glass tube. Another one ml of methanol was used to recover the remaining cells in the dish.
(§4) Effects of D-threo-P4, D-threo4′-hydroxy-P4 and D-threo-3,4′-ethylenedioxy-P4 on GlcCer Synthesis and Cell Growth. To confirm the cellular specificity of D-threo-3′,4′-ethylenedioxy-P4 and D-threo-(4′-hydroxy)-P4 as compared to D-threo-P4, MDCK cells were treated with different concentrations of the inhibitors. The total protein amount in each sample was determined by the BCA method. In GlcCer analysis, lipid samples and standard lipids were applied to the same HPTLC plate pre-treated with borate and developed in a solvent consisting of C/M/W (63/24/4). The level of GlcCer was estimated from a standard curve obtained using a computerized image scanner. The values were normalized on the basis of the phospholipid content. The results are shown in FIG. 7, wherein each bar is the average values from three dishes, with error bars corresponding to one standard deviation. In the control, the total protein and GlcCer were 414±47.4 μg/dish and 24.3±1.97 ng/nmol phosphate, respectively.

[8] = target: T2, 1-O-acylceramide synthase (Canis lupus familiaris, UniProt Q6XPZ3); assay: 1-O-acylceramide synthase (transacylase) assay; format: biochemical; conditions: D-threo enantiomers, FIG. 12
T2 construct: the 1-O-acylceramide synthase assayed in the cellular homogenates; endogenous in cells; host or cells: cellular homogenates (MDCK, from context)
T2 sequence (Q6XPZ3 32-408): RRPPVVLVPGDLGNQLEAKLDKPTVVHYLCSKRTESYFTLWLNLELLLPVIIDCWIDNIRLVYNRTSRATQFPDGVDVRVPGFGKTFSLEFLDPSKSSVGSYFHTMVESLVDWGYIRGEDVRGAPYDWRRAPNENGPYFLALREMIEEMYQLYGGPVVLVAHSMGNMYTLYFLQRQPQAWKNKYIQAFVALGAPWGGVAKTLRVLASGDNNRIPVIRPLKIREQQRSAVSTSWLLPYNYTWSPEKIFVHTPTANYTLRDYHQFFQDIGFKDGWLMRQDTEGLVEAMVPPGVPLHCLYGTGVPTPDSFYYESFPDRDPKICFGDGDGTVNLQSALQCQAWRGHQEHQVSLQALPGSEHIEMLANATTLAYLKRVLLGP
Description: Distinguishing Between Inhibition of GlcCer Synthase and 1-O-acylceramide Synthase Inhibition. […] An alternative pathway for ceramide metabolism was subsequently identified, the acylation of ceramide at the 1-hydroxyl position, which was blocked by both threo and erythro diastereomers of PDMP. The specificities of D-threo-P4, D-threo-3′,4′-ethylenedioxy-P4, and D-threo-(4′-hydroxy)-P4 for GlcCer synthase were studied by assaying the transacylase.

MDCK cells [9] = assay: GlcCer, ceramide and diradylglycerol content of treated MDCK cells (Specific Example 2); format: cell-based, canine
Description: as §3, with “After 24 h the medium was replaced with 8 ml of the medium containing 0, 11.8, 118 or 1180 nM D-t-P4, D-t-3′,4′-ethylenedioxy-P4 or D-4′-hydroxy)-P4.” left out
Three ml of chloroform was added to the tube and briefly sonicated using a water bath type sonicator. After centrifugation at 800 g for 5 min, the supernatant was transferred into another glass tube. The residues were reextracted with chloroform/methanol (1/1). After the centrifugation, the resultant supernatant was combined with the first one. The residues were air-dried and kept for protein analysis. Adding 0.9% NaCl to the supematant combined, the ratio of chloroform/methanol/aqueous was adjusted to 1/1/1. After centrifugation 800 g for 5 min, the upper layer was discarded. Methanol/water (1/1) with the same amount of volume of the lower layer was used to wash. The resultant lower layer was transferred into a small glass tube and dried down under a stream of nitrogen gas. A part of the lipid was used for lipid phosphate determination. Ames, B. N., Methods Enzymol., 8:115-118 (1966). The remainder was analyzed using HPTLC (Merck).
In order to determine whether inhibition of 1-O-acylceramide synthase was the basis for inhibitor mediated ceramide accumulation, the ceramide and diradylglycerol levels of MDCK cells treated D-threo-P4, D-threo-3′,4′-ethylenedioxy-P4, and D-threo-(4′-hydroxy)-P4 were measured (Table 9). MDCK cells (5×10^5) were seeded into a 10 cm dish and incubated for 24 h. Following the incubation, the cells were treated for 24 or 48 h with or without P4 or the phenyl substitute homologues. Both ceramide and diradylglycerol contents were determined by the method of Preis, J. et al., J. Biol. Chem., 261:8597-8600 (1986). GlcCer content was measured densitometrically by a video camera and use of NIH image 1.49. Significant increases in both ceramide and diradylglycerol occurred only in cells treated with inhibitor concentrations in excess of 1 mM. This was approximately 30-fold lower than the concentration required for inhibition of the 1-O-acylceramide synthase assayed in the cellular homogenates. […] Abe, A. et al., Biochim. Biophys. Acta, 1299:331-341 (1996).
as §4

CCCCCCCCCCCCCCCC(=O)NC(CN1CCCC1)C(O)c1ccccc1 (racemic) [BML-119, 1-phenyl-2-palmitoylamino-3-pyrrolidino-1-propanol]
activity at 1 µM ([1]; 9L cells, 1 μM inhibitor, read-out: growth, % of control growth): 71%
activity at 3 µM ([1]; 9L cells, 3 μM inhibitor, read-out: growth, % of control growth): 3%
IC50 ([1]; 9L, rounded off to one digit, read-out: Inhibition of tumor cell growth in vitro, IC50): 1000 nM
Inhibition at 5 μM ([2]; 5 μM inhibitor, 5 µM): 50% and 51 ± 2.3^e % and 49 ± 0.8^f %
% Inhibition at 80 μM ([2]; 80 μM inhibitor, 80 µM): 94 ± 1.4^b % and 97 ± 0.1^c % and 96 ± 0.1^d %
IC50 [3]: 1000 nM
IC50 [4]: 1000 nM
IC50 [5]: 2000 nM
IC50 [6]: 1000 nM

CCCCCCCCCCCCCCCC(=O)N[C@H](CN1CCCC1)[C@H](O)c1ccc(OC)c(OC)c1 [D-t-3′,4′-dimethoxy-P4]
potency as GlcCer synthase inhibitor, in words (GlcCer synthase): inferior to these dioxy derivatives

CCCCCCCCCCCCCCCC(=O)N[C@H](CN1CCCC1)[C@H](O)c1ccc(O)cc1 [D-threo-4′-hydroxy-P4, D-t-4′-hydroxy-1-phenyl-2-palmitoylamino-3-pyrrolidino-1-propanol]
total protein versus untreated cells (MDCK cells [7]; 1130 nM): significant decrease
total protein content versus untreated cells (MDCK cells [7]; 11.3 or 113 nM): little difference
activity in blocking 1-O-acylceramide synthase [8]: comparable activity
GlcCer lost from the cells (depletion) (MDCK cells [9]; 11.3 nM inhibitor): Approximately 66%
Ceramide (pmol/nmol phospholipids) (MDCK cells [9]; 11.3 nM, 24 h): 4.29 ± 0.71 pmol/nmol phospholipids
Diradylglycerol (pmol/nmol phospholipids) (MDCK cells [9]; 11.3 nM, 24 h): 30.9 ± 2.01 pmol/nmol phospholipids
Ceramide (pmol/nmol phospholipids) (MDCK cells [9]; 11.3 nM, 48 h): 6.70 ± 0.29 pmol/nmol phospholipids
Diradylglycerol (pmol/nmol phospholipids) (MDCK cells [9]; 11.3 nM, 48 h): 38.4 ± 1.44 pmol/nmol phospholipids
Ceramide (pmol/nmol phospholipids) (MDCK cells [9]; 113 nM, 24 h): 5.09 ± 0.95 pmol/nmol phospholipids
Diradylglycerol (pmol/nmol phospholipids) (MDCK cells [9]; 113 nM, 24 h): 31.5 ± 3.84 pmol/nmol phospholipids
Ceramide (pmol/nmol phospholipids) (MDCK cells [9]; 113 nM, 48 h): 7.47 ± 0.29 pmol/nmol phospholipids
Diradylglycerol (pmol/nmol phospholipids) (MDCK cells [9]; 113 nM, 48 h): 41.5 ± 0.66 pmol/nmol phospholipids
level of ceramide versus untreated cells (MDCK cells [9]; 1130 nM): two times higher
Ceramide (pmol/nmol phospholipids) (MDCK cells [9]; 1130 nM, 24 h): 7.38 ± 0.13 pmol/nmol phospholipids
Diradylglycerol (pmol/nmol phospholipids) (MDCK cells [9]; 1130 nM, 24 h): 38.5 ± 3.84 pmol/nmol phospholipids
Ceramide (pmol/nmol phospholipids) (MDCK cells [9]; 1130 nM, 48 h): 13.4 ± 1.03 pmol/nmol phospholipids
Diradylglycerol (pmol/nmol phospholipids) (MDCK cells [9]; 1130 nM, 48 h): 47.2 ± 2.51 pmol/nmol phospholipids
potency as GlcCer synthase inhibitor, in words (GlcCer synthase): twice as active as the p-methoxy compound

Reference: patent US6916802B2, “Amino ceramide-like compounds and therapeutic methods of use” (Genzyme Corporation, priority 2002, dated 2005)
